Columns and labels:
Type in all cases: cell-based, mouse
spleen dendritic cells = assay: Fluorescence staining of CD86 in spleen dendritic cells, confocal microscope; conditions: 24 hours
Method: In FIG. 11, culturing spleen dendritic cells (2×10^5/mL) and the prepared peptides were added at a concentration of 200 μg/mL, respectively, and after 6 hours, the expression level of CD86 using a PE-conjugated anti-CD86 antibody (eBioscience) was measured through a confocal microscope after fluorescence staining. After culturing spleen primary dendritic cells for a certain period of time, intracellular CD86, F-actin and nuclear staining was implemented. Expression of actin was stained with FITC-conjugated phalloidin (eBioscience), and nuclear staining was conducted with Hoechst 33342 (Sigma-Aldrich). For this purpose, cells cultured in a 48-well plate were placed in a 4% paraformaldehyde fixing solution, and then fixed at room temperature for 20 minutes.
Then, after washing twice with phosphate buffered saline solution, it was permeabilized with 0.1% Triton X-100 (Sigma-Aldrich) solution at room temperature for 5 minutes and washed twice with phosphate buffered saline solution. In order to remove non-specific staining, after reacting with 0.2% bovine serum albumin (Sigma-Aldrich) solution at room temperature for 20 minutes, it was washed twice with phosphate buffered saline solution. After that, the anti-CD86 antibody and phalloidine were diluted in 0.2% bovine serum albumin solution at a ratio of 1:40 and reacted for 40 minutes, washed 3 times with Tris buffer, placed on a slide glass, followed by counter-staining with Hoechst 33342 solution for nuclear staining of cells. After sealing with a cover glass, the cells were observed using a confocal laser microscope (K1 nanoscope).
In FIG. 26, spleen dendritic cells (2×10^5/mL) were dispensed in a 48-well plate, and linker peptides were each added at a concentration of 400 μg/mL, followed by culturing for 24 hours. Activation of spleen dendritic cells was induced by adding 1 μg/mL of LPS to the culture medium. The cultured cells were placed in a 4% paraformaldehyde fixing solution and fixed at room temperature for 20 minutes. After fluorescence staining using PE-conjugated anti-CD86 antibody (eBioscience), it was measured with a confocal microscope (K1 Nanoscope, Korea). Intracellular actin expression was stained with FITC-conjugated phalloidin (eBioscience), and nuclear staining was conducted with Hoechst 33342 (Sigma-Aldrich). CD86 antibody and phalloidin were diluted 1:40 in 0.2% bovine serum albumin solution and used.

[1] = test system: spleen primary dendritic cells; assay: ELISA of TNF-α / IL-12p40 secreted by cultured spleen primary dendritic cells; conditions: 24 hours
Method: In FIG. 12, spleen primary dendritic cells were dispensed at 1×10^6/mL and cultured for 24 hours, and then a concentration of TNF-α secreted from these cells in the culture medium was measured. As a result, it was confirmed that the secretion increased in a time-dependent manner. The concentration of TNF-α was measured at 450 nm using an ELISA kit (R&D systems) and a microplate analyzer (Synergy H1, Biotek). However, when dendritic cells were dispensed at 2×10^5/mL, CD86 expression was increased but TNF-α secretion was not increased (results not presented). * indicates statistical significance as P<0.05 or less compared with 3 h.
In FIG. 13, spleen primary dendritic cells were dispensed at 1×10^6/mL and cultured for 24 hours. […] Furthermore, when P4, P5 and P6 peptides were added at a concentration of 200 μg/mL, respectively, the secretion of TNF-α was not inhibited.
Therefore, it could be seen that fibronectin has a disadvantage of inhibiting the activation by stimulants although can maintain the inactivation of spleen dendritic cells. * indicates statistical significance as P<0.05 or less compared to -LPS.
In FIG. 27, an ELISA kit (R&D systems) was used to measure the concentration of TNF-α secreted into the culture medium when spleen primary dendritic cells were dispensed at 2×10^5/mL and cultured for 24 hours. The concentration was determined at 450 nm by a microplate analyzer (Synergy H1, Biotek).

[2] = test system: bone marrow-derived dendritic cells; assay: ELISA of TNF-α and IL-12p40 from LPS-stimulated bone marrow-derived dendritic cells; conditions: BMDC, 24 hours, LPS 1 μg/mL
Method: Mouse bone marrow-derived dendritic cells were obtained by differentiation from mouse bone marrow precursor cells. The femur and tibia of female C57BL/6 mouse were removed, and bone marrow was isolated using 10 mL of EDTA:BSS (Balanced Salt Solution) buffer containing 2% FBS. Red blood cells were removed with erythrocyte lysis buffer (Sigma-Aldrich), washed with EDTA:BSS buffer, followed by filtering cells using a 70 μm cell strainer (Falcon). Cells at 3×10^6/mL were dispensed in a 6-well plate, and interleukin-4 (20 ng/ml) (JW Creagene, Korea) and GM-CSF (20 ng/ml) (JW Creagene) were added and cultured for 7 days to induce differentiation. Differentiated dendritic cells were reacted with microbeads bound with CD11c antibody (eBioscience), was separated using CD11c Microbeads Ultrapure (MACS, Milteni Biotec), and then cultured.
In FIG. 19, when fibronectin was administered by concentration while culturing bone marrow-derived dendritic cells for 24 hours, it could be seen that the secretion of TNF-α and IL-12p40 by LPS (1 μg/mL) was inhibited from a concentration of 100 μg/mL. * indicates statistical significance as P<0.05 or less compared to 0 μg/mL concentration.

Substance: fibronectin
- CD86-expressing cells (spleen dendritic cells; with 1 μg/mL LPS): almost not measured
- CD86-expressing cells (spleen dendritic cells; without LPS, linker peptides 400 μg/mL): almost not observed
- secretion of TNF-α and IL-12p40 ([1]; 1 μg/mL LPS): did not produce these cytokines
- secretion of TNF-α ([1]; cells 1×10^6/mL, no stimulant): hardly measured
- TNF-α secretion ([1]; cells 2×10^5/mL, without LPS): hardly occurred
- concentration from which the secretion of TNF-α and IL-12p40 by LPS was inhibited [2]: ≥ 100 µg/mL

Source: patent publication US20240207308A1, “METHOD FOR CULTURING DENDRITIC CELLS” (NANOFAENTECH CO., LTD., priority 2021, published 2024)
